# Legend:
# Mcl-1 = Mcl-1 (Homo sapiens (Human), UniProt Q07820); assay: TR-FRET binding assay, FITC-Bak peptide and MBP-tagged Mcl-1; conditions: read-out: Ki for Inhibition of Mcl-1 by TR-FRET assay
# Protocol: Compounds are diluted in DMSO in a 16-point, semilog serial dilution scheme. […] The plate was mixed and incubated for 3 hours at room temperature. […] TR-FRET signal is plotted and IC50 and Ki values are calculated in the same manner as the fluorescence polarization anisotropy based competition assays.
# [1] = tested on: H929 human cancer cell lines; assay: Cellular viability / proliferation (Cell TiterGlo, 72 h); assay type: cell-based; conditions: Homo sapiens, NCI-H929, 72 h, read-out: GI50 on cellular proliferation of H929 human cancer cell lines, H929 cells, 72 h, Cell TiterGlo, 10% FBS
# Procedure, shortened: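 Plating is at 1,000 cells/well in 10% FBS medium; after 24 h, compound is added as a 2-fold series starting at 50 μM with under 1% DMSO.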
# Chain of Mcl-1 (Q07820 172-327): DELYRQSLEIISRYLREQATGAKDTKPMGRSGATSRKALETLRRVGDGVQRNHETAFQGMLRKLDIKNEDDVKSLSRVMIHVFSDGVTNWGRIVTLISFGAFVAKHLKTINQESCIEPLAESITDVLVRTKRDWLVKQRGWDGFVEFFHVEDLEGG
Compound,Ki (Mcl-1) [nM],GI50 [1] [nM]
"COc1ccc(N2C[C@@H](C)n3c(c(CCCOc4cc(C)c(Cl)c(C)c4)c4ccc(Cl)c(-c5c(C)nn(C)c5C)c43)C2=O)c2c1cc(C(=O)O)n2Cc1cc(C)ccn1 [Example 582, (R)-7-(7-chloro-10-(3-(4-chloro-3,5-dimethylphenoxy)propyl)-4-methyl-1-oxo-6-(1,3,5-trimethyl-1H-pyrazol-4-yl)-3,4-dihydropyrazino[1,2-a]indol-2(1H)-yl)-4-methoxy-1-((4-methylpyridin-2-yl)methyl)-1H-indole-2-carboxylic acid]",0.28,220
"Cc1cc(OCCCc2c3n(c4c(-c5c(C)nn(C)c5C)c(Cl)ccc24)[C@H](C)CN(c2cn(C)c4ccc(-c5nnc6ccccn56)cc24)C3=O)cc(C)c1Cl [Example 675, (R)-2-(5-([1,2,4]Triazolo[4,3-a]pyridin-3-yl)-1-methyl-1H-indol-3-yl)-7-chloro-10-(3-(4-chloro-3,5-dimethylphenoxy)propyl)-4-methyl-6-(1,3,5-trimethyl-1H-pyrazol-4-yl)-3,4-dihydropyrazino[1,2-a]indol-1(2H)-one]",28,4800
"COCCn1c(C(=O)O)cc2cc(C)cc(N3C[C@@H](C)n4c(c(CCCOc5cc(C)c(Cl)c(C)c5)c5ccc(Cl)c(-c6c(C)nc(CN7CCOCC7)nc6C)c54)C3=O)c21 [Example 717, (R)-7-(7-chloro-10-(3-(4-chloro-3,5-dimethylphenoxy)propyl)-6-(4,6-dimethyl-2-(morpholinomethyl)pyrimidin-5-yl)-4-methyl-1-oxo-3,4-dihydropyrazino[1,2-a]indol-2(1H)-yl)-1-(2-methoxyethyl)-5-methyl-1H-indole-2-carboxylic acid]",< 0.2,< 200
"Cc1cc(N2C[C@@H](C)n3c(c(CCCOc4cc(C)c(Cl)c(C)c4)c4ccc(Cl)c(-c5c(C)n[nH]c5C)c43)C2=O)c2c(c1)cc(C(=O)O)n2Cc1ccccn1 [Example 719, (R)-7-(7-chloro-10-(3-(4-chloro-3,5-dimethylphenoxy)propyl)-6-(3,5-dimethyl-1H-pyrazol-4-yl)-4-methyl-1-oxo-3,4-dihydropyrazino[1,2-a]indol-2(1H)-yl)-5-methyl-1-(pyridin-2-ylmethyl)-1H-indole-2-carboxylic acid]",< 0.2,640
"Cc1cc(OCCCc2c3n(c4c(-c5c(C)nn(C)c5C)c(Cl)ccc24)[C@H](C)CN(c2cn(C)c4ccc(-c5cncnc5)cc24)C3=O)cc(C)c1Cl [Example 653, (R)-7-Chloro-10-(3-(4-chloro-3,5-dimethylphenoxy)propyl)-4-methyl-2-(1-methyl-5-(pyrimidin-5-yl)-1H-indol-3-yl)-6-(1,3,5-trimethyl-1H-pyrazol-4-yl)-3,4-dihydropyrazino[1,2-a]indol-1(2H)-one]",15,1900
"C=Cc1cccc(Cn2c(C(=O)O)cc3cc(C)cc(N4C[C@@H](C)n5c(c(CCCOc6cc(C)c(Cl)c(C)c6)c6ccc(Cl)c(-c7c(C)nn(C)c7C)c65)C4=O)c32)n1 [Example 517, (R)-7-(7-Chloro-10-(3-(4-chloro-3,5-dimethylphenoxy)propyl)-4-methyl-1-oxo-6-(1,3,5-trimethyl-1H-pyrazol-4-yl)-3,4-dihydropyrazino[1,2-a]indol-2(1H)-yl)-5-methyl-1-((6-vinylpyridin-2-yl)methyl)-1H-indole-2-carboxylic acid]",0.36,760
"Cc1ccnc(Cn2c(C(=O)O)cc3cc(OCCN(C)C)cc(N4C[C@@H](C)n5c(c(CCCOc6cc(C)c(Cl)c(C)c6)c6ccc(Cl)c(-c7c(C)ncnc7C)c65)C4=O)c32)c1 [Example 584, (R)-7-(7-chloro-10-(3-(4-chloro-3,5-dimethylphenoxy)propyl)-6-(4,6-dimethylpyrimidin-5-yl)-4-methyl-1-oxo-3,4-dihydropyrazino[1,2-a]indol-2(1H)-yl)-5-(2-(dimethylamino)ethoxy)-1-((4-methylpyridin-2-yl)methyl)-1H-indole-2-carboxylic acid]",< 0.2,1000
"COCCOc1cc(N2C[C@@H](C)n3c(c(CCCOc4cc(C)c(Cl)c(C)c4)c4ccc(Cl)c(-c5c(C)ncnc5C)c43)C2=O)c2c(c1)cc(C(=O)O)n2C [Example 539, (R)-7-(7-Chloro-10-(3-(4-chloro-3,5-dimethylphenoxy)propyl)-6-(4,6-dimethylpyrimidin-5-yl)-4-methyl-1-oxo-3,4-dihydropyrazino[1,2-a]indol-2(1H)-yl)-5-(2-methoxyethoxy)-1-methyl-1H-indole-2-carboxylic acid]",< 0.2,< 200
"COCCn1cc(N2C[C@@H](C)n3c(c(CCCOc4cc(C)c(Cl)c(C)c4)c4ccc(Cl)c(-c5c(C)nn(C)c5C)c43)C2=O)c2cc(-c3ncn(CC4COC4)n3)ccc21 [Example 581, (R)-7-Chloro-10-(3-(4-chloro-3,5-dimethylphenoxy)propyl)-2-(1-(2-methoxyethyl)-5-(1-(oxetan-3-ylmethyl)-1H-1,2,4-triazol-3-yl)-1H-indol-3-yl)-4-methyl-6-(1,3,5-trimethyl-1H-pyrazol-4-yl)-3,4-dihydropyrazino[1,2-a]indol-1(2H)-one]",3.7,250
"Cc1cc(N2C[C@@H](C)n3c(c(CCCOc4cc(C)c(Cl)c(C)c4)c4ccc(Cl)c(-c5c(C)nn(C)c5C)c43)C2=O)c2c(c1)cc(C(=O)O)n2Cc1cccc(C#N)n1 [Example 557, (R)-7-(7-chloro-10-(3-(4-chloro-3,5-dimethylphenoxy)propyl)-4-methyl-1-oxo-6-(1,3,5-trimethyl-1H-pyrazol-4-yl)-3,4-dihydropyrazino[1,2-a]indol-2(1H)-yl)-1-((6-cyanopyridin-2-yl)methyl)-5-methyl-1H-indole-2-carboxylic acid]",< 0.2,820
"Cc1cc(OCCCc2c3n(c4c(-c5c(C)nn(C)c5C)c(Cl)ccc24)[C@H](C)CN(c2cc(OCCOC(C)C)cc4c(C(=O)O)cn(Cc5ccccn5)c24)C3=O)cc(C)c1Cl [Example 606, (R)-7-(7-chloro-10-(3-(4-chloro-3,5-dimethylphenoxy)propyl)-4-methyl-1-oxo-6-(1,3,5-trimethyl-1H-pyrazol-4-yl)-3,4-dihydropyrazino[1,2-a]indol-2(1H)-yl)-5-(2-isopropoxyethoxy)-1-(pyridin-2-ylmethyl)-1H-indole-3-carboxylic acid]",0.47,600
"Cc1cnc(-n2cnc(-c3ccc4c(c3)c(N3C[C@@H](C)n5c(c(CCCOc6cc(C)c(Cl)c(C)c6)c6ccc(Cl)c(-c7c(C)nn(C)c7C)c65)C3=O)cn4C)n2)nc1 [Example 700, (R)-7-Chloro-10-(3-(4-chloro-3,5-dimethylphenoxy)propyl)-4-methyl-2-(1-methyl-5-(1-(5-methylpyrimidin-2-yl)-1H-1,2,4-triazol-3-yl)-1H-indol-3-yl)-6-(1,3,5-trimethyl-1H-pyrazol-4-yl)-3,4-dihydropyrazino[1,2-a]indol-1(2H)-one]",0.73,380
"COCCn1c(C(=O)O)cc2cc(COC)cc(N3C[C@@H](C)n4c(c(CCCOc5cc(C)c(Cl)c(C)c5)c5ccc(Cl)c(-c6c(C)nn(C)c6C)c54)C3=O)c21 [Example 677, (R)-7-(7-chloro-10-(3-(4-chloro-3,5-dimethylphenoxy)propyl)-4-methyl-1-oxo-6-(1,3,5-trimethyl-1H-pyrazol-4-yl)-3,4-dihydropyrazino[1,2-a]indol-2(1H)-yl)-1-(2-methoxyethyl)-5-(methoxymethyl)-1H-indole-2-carboxylic acid]",< 0.2,< 200
"Cc1cc(N2C[C@@H](C)n3c(c(CCCOc4cc(C)c(Cl)c(C)c4)c4ccc(Cl)c(-c5c(C)nn(C)c5C)c43)C2=O)c2ncc(C(=O)O)cc2c1 [Example 658, (R)-8-(7-chloro-10-(3-(4-chloro-3,5-dimethylphenoxy)propyl)-4-methyl-1-oxo-6-(1,3,5-trimethyl-1H-pyrazol-4-yl)-3,4-dihydropyrazino[1,2-a]indol-2(1H)-yl)-6-methylquinoline-3-carboxylic acid]",< 0.2,250
"Cc1cc(OCCCc2c3n(c4c(-c5c(C)nc(CN6CCN(C)C(=O)C6)nc5C)c(Cl)ccc24)[C@H](C)CN(c2cn(C)c4ccc(-c5ncn(C)n5)cc24)C3=O)cc(C)c1Cl [Example 663, (R)-7-chloro-10-(3-(4-chloro-3,5-dimethylphenoxy)propyl)-6-(4,6-dimethyl-2-((4-methyl-3-oxopiperazin-1-yl)methyl)pyrimidin-5-yl)-4-methyl-2-(1-methyl-5-(1-methyl-1H-1,2,4-triazol-3-yl)-1H-indol-3-yl)-3,4-dihydropyrazino[1,2-a]indol-1(2H)-one]",0.52,< 200
"COCCOc1cc(N2C[C@@H](C)n3c(c(CCCOc4cc(C)c(Cl)c(C)c4)c4ccc(Cl)c(-c5c(C)nn(C)c5C)c43)C2=O)c2c(c1)c(C(=O)O)cn2Cc1ccccn1 [Example 609, (R)-7-(7-chloro-10-(3-(4-chloro-3,5-dimethylphenoxy)propyl)-4-methyl-1-oxo-6-(1,3,5-trimethyl-1H-pyrazol-4-yl)-3,4-dihydropyrazino[1,2-a]indol-2(1H)-yl)-5-(2-methoxyethoxy)-1-(pyridin-2-ylmethyl)-1H-indole-3-carboxylic acid]",0.26,340
"Cc1cc(OCCCc2c3n(c4c(-c5c(C)nn(C)c5C)c(Cl)ccc24)[C@H](C)CN(c2cn(C)c4ccc(-c5nc6ccccn6n5)cc24)C3=O)cc(C)c1Cl [Example 648, (R)-2-(5-([1,2,4]Triazolo[1,5-a]pyridin-2-yl)-1-methyl-1H-indol-3-yl)-7-chloro-10-(3-(4-chloro-3,5-dimethylphenoxy)propyl)-4-methyl-6-(1,3,5-trimethyl-1H-pyrazol-4-yl)-3,4-dihydropyrazino[1,2-a]indol-1(2H)-one]",0.23,310

# — US11596639B2, “Substituted indole Mcl-1 inhibitors” (Vanderbilt University, priority 2016, dated 2023)
